Assay results reported in patent US10173968B2, “Bishydrazone-based antifungal agents” (University of Kentucky Research Foundation, priority 2016, dated 2019).
Read-outs that look alike come from different tables or passages of the source.

How the values were obtained:
[1] = tested on: L. monocytogenes ATCC 19115 (strain B); type: cell-based, Listeria monocytogenes
Description: (§1) The bacteria were grown in MH broth at 37° C. for these experiments. […] The resulting cultures were diluted 1:1000 and grown until the culture reached ˜300,000 cfu/mL. That culture was then further diluted 1:1000 and used to determine the next round of MIC values.

MRSA (strain C) = type: cell-based, Staphylococcus aureus
Description: as §1

C. albicans ATCC 10231 [2] = type: cell-based, Candida albicans
[3] = tested on: C. albicans strains (panel of seven); assay: Antifungal MIC, summary over the panel; type: cell-based, Candida albicans
Description: In vitro MIC testing was performed according to the CLSI M27-A3 standard microbroth dilution methodology for the susceptibility testing of yeasts with minor modifications. […] MIC values were read visually for all tested compounds, and the endpoint was determined as the minimum concentration of compound that yielded complete inhibition relative to growth control.

C. albicans ATCC 90819 = assay: Antifungal MIC, CLSI M27-A3 microbroth dilution; type: cell-based, Candida albicans; details: Candida albicans, ATCC90819; C. albicans ATCC 90819, resistant to FLC, ITC, and VOR; converted from μg/mL; read-out: MIC
Description: (§2) In vitro MIC testing was performed according to the CLSI M27-A3 standard microbroth dilution methodology for the susceptibility testing of yeasts with minor modifications.

C. albicans ATCC 1003 = assay: Antifungal MIC, CLSI M27-A3 microbroth dilution; type: cell-based, Candida albicans; details: Candida albicans, ATCC1003; C. albicans ATCC 1003; converted from μg/mL; read-out: MIC
Description: as §2

C. albicans ATCC 64124 = assay: Antifungal MIC, CLSI M27-A3 microbroth dilution; type: cell-based, Candida albicans; details: Candida albicans, ATCC64124; C. albicans ATCC 64124, resistant to FLC, ITC, and VOR; converted from μg/mL; read-out: MIC
Description: as §2

C. albicans ATCC 2876 = assay: Antifungal MIC, CLSI M27-A3 microbroth dilution; type: cell-based, Candida albicans; details: Candida albicans, ATCC2876; C. albicans ATCC 2876, susceptible to FLC, ITC, and VOR; converted from μg/mL; read-out: MIC
Description: as §2

C. albicans ATCC 2310 = assay: Antifungal MIC, CLSI M27-A3 microbroth dilution; type: cell-based, Candida albicans; details: Candida albicans, ATCC2310; C. albicans ATCC 2310, susceptible to FLC, ITC, and VOR; converted from μg/mL; read-out: MIC
Description: as §2

C. albicans ATCC 1237 = assay: Antifungal MIC, CLSI M27-A3 microbroth dilution; type: cell-based, Candida albicans; details: Candida albicans, ATCC1237, C. albicans ATCC 1237, resistant to FLC, ITC, and VOR; converted from μg/mL; read-out: MIC
Description: as §2

C. albicans ATCC 10231 [4] = assay: Antifungal MIC, CLSI M27-A3 microbroth dilution; type: cell-based, Candida albicans; details: Candida albicans, ATCC10231, C. albicans ATCC 10231, resistant to FLC, ITC, and VOR, read-out: MIC
Description: as §2

[5] = tested on: P. aeruginosa ATCC 27853 (strain I); type: cell-based
Description: as §1

B. subtilis 168 = assay: Antibacterial MIC, double-dilution method; type: cell-based; details: Bacillus subtilis, strain A, Gram-positive
Procedure, shortened: (§3)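 The lowest inhibitory concentration is reported from a twofold dilution series, after an initial single-concentration screen with every compound at 500 μM.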

MRSA = assay: Antibacterial MIC, double-dilution method; type: cell-based; details: Staphylococcus aureus, strain C, Gram-positive, read-out: MIC
Procedure, shortened: as §3

M. smegmatis MC2-155 = assay: Antibacterial MIC, double-dilution method; type: cell-based; details: Mycolicibacterium smegmatis, MC2155, strain K, mycobacterial; converted from μM; read-out: MIC
Procedure, shortened: as §3

VRE = assay: Antibacterial MIC, double-dilution method; type: cell-based; details: Enterococcus, strain D, Gram-positive, converted from μM, read-out: MIC
Procedure, shortened: as §3

K. pneumoniae ATCC 27736 = assay: Antibacterial MIC, double-dilution method; type: cell-based; details: Klebsiella pneumoniae, ATCC27736, strain H, Gram-negative, read-out: MIC
Procedure, shortened: as §3

[6] = tested on: L. monocytogenes ATCC 19115; assay: Antibacterial MIC, double-dilution method; type: cell-based; details: Listeria monocytogenes, ATCC19115, strain B, Gram-positive, read-out: MIC
Procedure, shortened: as §3

E. coli MC1061 = assay: Antibacterial MIC, double-dilution method; type: cell-based; details: Escherichia coli, strain G, Gram-negative, read-out: MIC
Procedure, shortened: as §3

S. enterica ATCC 14028 = assay: Antibacterial MIC, double-dilution method; type: cell-based; details: Salmonella enterica, ATCC14028, strain J, Gram-negative, read-out: MIC
Procedure, shortened: as §3

P. aeruginosa ATCC 27853 = assay: Antibacterial MIC, double-dilution method; type: cell-based; details: Pseudomonas aeruginosa, ATCC27853, strain I, Gram-negative, read-out: MIC
Procedure, shortened: as §3

VRE (strain D) = type: cell-based, enterococcus
Description: as §1

C. albicans ATCC 10231 [7] = assay: Intracellular ROS production, DCFH-DA fluorescence assay; type: cell-based, Candida albicans; details: at 1× and 2× MIC values, 1 h at 35° C.
Description: We used the 2′,7′-dichlorodihydrofluorescein diacetate (DCFH-DA) dye as a probe to measure the production of ROS in yeast cells upon treatment with our compounds. DCFH-DA can easily cross the cell membranes and be hydrolyzed by cellular esterases to the non-fluorescent 2′,7′-dichlorodihydrofluorescein (DCFH), which can further be oxidized to the highly fluorescent 2′,7′-dichlorofluorescein (DCF) by the intracellular ROS. Five mL of RPMI 1640 medium were inoculated using a single colony of C. albicans ATCC 10231 (strain A) in a Falcon tube and grown overnight at 35° C. at 200 rpm. The overnight culture was diluted by adding 200 μL of yeast cells to 800 μL of the same medium. […] H2O2 at 1 mM was also used as a positive control. Cells were centrifuged and washed twice with PBS buffer (pH 7.2). Cells were resuspended in the same buffer and incubated with DCFH-DA (20 μg/mL) for 30 min in the dark. Afterwards, cells were centrifuged and washed with PBS buffer to remove excess DCFH-DA. Glass slides with 10-15 μL of each mixture were prepared and observed in bright field and fluorescence modes (FITC filter set, excitation and emission wavelengths of 488 and 512 nm, respectively) using a Zeiss Axovert 200M fluorescence microscope (FIG. 3).

[8] = after 15 serial passages at sub-inhibitory concentrations

## C/C(=N\NC(=N)N)c1ccc2c(c1)Cc1cc(/C(C)=N/NC(=N)N)ccc1-2.Cl.Cl [Compound 4F, (2E,2′E)-2,2′-((9H-Fluorene-2,7-diyl)bis(ethan-1-yl-1-ylidene))bis(hydrazine-1-carboximidamide) dihydrochloride]
[1]; [8]
  increase in relative MIC values: one-fold
[1]; up to 15 passages
  development of resistance (passages after which resistance developed): did not develop resistance
MRSA (strain C); [8]
  increase in relative MIC values: one-fold
MRSA (strain C); up to 15 passages
  development of resistance (passages after which resistance developed): did not develop resistance
C. albicans ATCC 10231 [2]; after 13 passages, sub-MIC drug concentrations
  shift in relative MIC values: 2 fold
C. albicans ATCC 10231 [2]; repeated treatments with sub-MIC drug concentrations
  development of drug resistance: unable to develop drug resistance
[3]; Candida albicans, all, most or majority of the fungal strains, read-out: MIC, span over C. albicans strains
  MIC: 1 to 3.9 µg/mL
[3]; against all fungal strains tested
  antifungal activity in words: excellent antifungal activities
C. albicans ATCC 90819
  MIC: 4.6 µM
C. albicans ATCC 1003
  MIC: 2.3 µM
C. albicans ATCC 64124
  MIC: 2.3 µM
C. albicans ATCC 2876
  MIC: 2.3 µM
C. albicans ATCC 2310
  MIC: 2.3 µM
C. albicans ATCC 1237
  MIC: 4.6 µM
C. albicans ATCC 10231 [4]; converted from μg/mL
  MIC: 2.3 to 4.6 µM
C. albicans ATCC 10231 [4]
  MIC: 1 to 2 µg/mL
[5]; [8]
  increase in relative MIC values: one-fold
[5]; up to 15 passages
  development of resistance (passages after which resistance developed): did not develop resistance
B. subtilis 168; converted from μM
  MIC: 3.4 µg/mL
B. subtilis 168; range 0.5 to 500 μM
  MIC: 7.8 µM
MRSA; converted from μM
  MIC: 0.4 to 0.9 µg/mL
MRSA; range 0.5 to 500 μM
  MIC: 1 to 2 µM
M. smegmatis MC2-155
  MIC: 0.4 µg/mL
VRE
  MIC: 0.4 µg/mL
K. pneumoniae ATCC 27736; converted from μM
  MIC: 13.6 to 27.2 µg/mL
K. pneumoniae ATCC 27736; range 0.5 to 500 μM
  MIC: 31.3 to 62.5 µM
[6]; converted from μM
  MIC: < 0.2 µg/mL
[6]; range 0.5 to 500 μM
  MIC: < 0.5 µM
E. coli MC1061; converted from μM
  MIC: 218 µg/mL
E. coli MC1061; range 0.5 to 500 μM
  MIC: 500 µM
S. enterica ATCC 14028; converted from μM
  MIC: 1.7 µg/mL
S. enterica ATCC 14028; range 0.5 to 500 μM
  MIC: 3.9 µM
P. aeruginosa ATCC 27853; converted from μM
  MIC: 0.4 to 0.9 µg/mL
P. aeruginosa ATCC 27853; range 0.5 to 500 μM
  MIC: 1 to 2 µM
VRE (strain D); [8]
  increase in relative MIC values: one-fold
VRE (strain D); up to 15 passages
  development of resistance (passages after which resistance developed): did not develop resistance
C. albicans ATCC 10231 [7]
  intracellular ROS production: significantly increased intracellular ROS production
